Calls of active or inactive are those of the source. The rule behind the calls is not given here. Some results are limits rather than exact numbers.

Data set [1] has as its target T1, Growth hormone secretagogue receptor type 1 (Homo sapiens, UniProt Q92847). In words: Activity at GHS receptor by calcium flux assay in CHO-K cells. Format: functional, cell-based. In general terms: A change in cytosolic calcium serves as a functional read-out for many receptors and channels.
Data set [2] concerns the target T2, Dihydrofolate reductase (Homo sapiens, UniProt P00374).
T2 sequence (P00374 whole entry): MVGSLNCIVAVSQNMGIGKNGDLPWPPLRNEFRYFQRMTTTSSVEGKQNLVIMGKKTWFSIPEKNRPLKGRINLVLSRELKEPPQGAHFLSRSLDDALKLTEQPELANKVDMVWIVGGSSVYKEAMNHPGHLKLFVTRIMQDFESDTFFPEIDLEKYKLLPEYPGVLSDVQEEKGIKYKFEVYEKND
In words: Inhibition of human recombinant DHFR assessed as rate of depletion of NADPH.

For data set [3], the target named is T1, Growth hormone secretagogue receptor type 1. In words: Inhibition of [125I]ghrelin binding to GHS receptor in CHO-K cells. Format: cell-based.
For data set [4], the target named is T3, Dihydrofolate reductase (Homo sapiens) (UniProt P00374).
T3 sequence (whole entry): T2 sequence (P00374 whole entry)
In words: Inhibition of human recombinant DHFR assessed as rate of depletion of NADPH at 1 uM.

The subject of data set [5] is Mus musculus. Description: Reduction of cumulative food intake in fasted DIO mouse at 30 mg/kg, ip after 24 hrs. Set-up: dose 30 mg/kg. The data set is classed as functional, organism-based.
Data set [6] can be described thus: Ratio of drug level in brain against plasma in rat after 1 hr. The data set is classed as ADME, organism-based. To be noted: read-out: BBR.
A short description of data set [7]: Ratio of drug level in brain against plasma in rat after 8 hrs. The data set is classed as ADME, organism-based. To be noted: read-out: BBR.
In data set [8] the test system is Mus musculus. In words: Reduction of cumulative food intake in fasted DIO mouse at 30 mg/kg, ip after 4 hrs. Format: functional, organism-based. Also noted: dose 30 mg/kg.
The subject of data set [9] is Mus musculus. In words: Reduction of cumulative food intake in fasted DIO mouse at 30 mg/kg, ip after 2 hrs. The data set is classed as functional, organism-based. Set-up: dose 30 mg/kg.
Data set [10] relates to Mus musculus. In words: Decrease of body weight in C57BL/6J mouse at 50 mg/kg, po after 14 days. Format: functional. Also noted: scale not given: the % may be the effect or the level left.
Data set [11] has as its system Mus musculus. Description: Decrease of food intake in C57BL/6J mouse at 50 mg/kg, po after 1 day. Format: functional, organism-based. Set-up: dose 50 mg/kg.
Data set [12] relates to Mus musculus. Description: Change in lean body mass of C57BL/6J mouse at 50 mg/kg, po after 14 days. Also noted: dose 50 mg/kg. The data set is classed as functional, organism-based.
For data set [13], the system named is Rattus norvegicus. Description: Reduction of cumulative food intake in Sprague-Dawley rat at 50 mg/kg, po after 24 hrs. The data set is classed as functional. Set-up: scale not given: the % may be the effect or the level left.
The nature of data set [14]: Half life in rat. The data set is classed as ADME, organism-based. The note with it: in vivo.
A short description of data set [15]: Ratio of drug level in brain against plasma in rat after 4 hrs. Format: ADME, organism-based. The note with it: read-out: BBR.
Data set [16] deals with Mus musculus. In words: Decrease of plasma insulin level in C57BL/6J mouse at 50 mg/kg, po after 14 days. Also noted: dose 50 mg/kg. Format: functional, organism-based.
Data set [17] is described as follows: Bioavailability in rat. To be noted: in vivo. Format: ADME, organism-based.
Data set [18] in a line: AUC in orally dosed rat. The data set is classed as ADME, organism-based. The note with it: plasma, po.
Data set [19] relates to Rattus norvegicus. Description: Reduction of cumulative food intake in Sprague-Dawley rat at 50 mg/kg, po after 32 hrs. Set-up: scale not given: the % may be the effect or the level left. The data set is classed as functional.
Data set [20] relates to Mus musculus. Description: Decrease of epididymal fat pad weight in C57BL/6J mouse at 50 mg/kg, po after 14 days. Set-up: scale not given: the % may be the effect or the level left. Format: functional.
Data set [21] concerns Mus musculus. In words: Reduction of cumulative food intake in fasted DIO mouse at 30 mg/kg, po after 1 hr. Set-up: scale not given: the % may be the effect or the level left. The data set is classed as functional.
The test system of data set [22] is Mus musculus. In words: Reduction of cumulative food intake in fasted DIO mouse at 100 mg/kg, po after 20 mins. The data set is classed as functional. Also noted: scale not given: the % may be the effect or the level left.
The nature of data set [23]: Half life in DIO mouse. Format: ADME, organism-based. The note with it: in vivo.
The subject of data set [24] is Mus musculus. In words: Reduction of cumulative food intake in fasted DIO mouse at 100 mg/kg, po after 1 hr. Set-up: scale not given: the % may be the effect or the level left. The data set is classed as functional.
The test system of data set [25] is Mus musculus. In words: Ratio of drug level in brain against plasma in orally dosed DIO mouse. Format: ADME, organism-based. To be noted: po.
The nature of data set [26]: AUC in orally dosed DIO mouse. Format: ADME, organism-based. To be noted: plasma, po.
The test system of data set [27] is Mus musculus. In words: Reduction of cumulative food intake in fasted DIO mouse at 30 mg/kg, po after 20 mins. Format: functional. Also noted: scale not given: the % may be the effect or the level left.

T1 sequence (Q92847 whole entry): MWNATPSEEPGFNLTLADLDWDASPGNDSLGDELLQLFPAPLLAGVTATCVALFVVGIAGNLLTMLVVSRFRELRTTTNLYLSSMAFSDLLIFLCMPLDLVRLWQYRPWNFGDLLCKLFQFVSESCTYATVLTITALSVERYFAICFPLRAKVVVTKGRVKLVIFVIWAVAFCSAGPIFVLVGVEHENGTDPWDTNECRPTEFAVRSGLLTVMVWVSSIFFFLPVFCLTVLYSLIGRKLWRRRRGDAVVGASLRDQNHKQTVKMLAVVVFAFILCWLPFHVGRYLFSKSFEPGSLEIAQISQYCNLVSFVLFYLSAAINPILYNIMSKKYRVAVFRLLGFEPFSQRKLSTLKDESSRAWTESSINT

As usually defined, the IC50 is the concentration at which inhibition is half-maximal. Turning to `Nc1nc(N)c(-c2ccc(NC(=O)NCCc3ccccc3)cc2)c(COCc2ccccc2)n1`, the 50% inhibitory concentration (IC50) is 7 nM in data set [1] and above 10000 nM in data set [2].

As a reminder, the inhibition is the share of the control response that was lost under treatment. As for `CCc1nc(N)nc(N)c1-c1ccc(NCc2ccc(S(C)(=O)=O)cc2)cc1`, the values for the IC50 in [1], in [3] and in data set [2] were 19 nM, 7 nM and below 10 nM, respectively. Moreover, in [4], the inhibition was 99%.

`Nc1nc(N)c(-c2ccc(NC(=O)Cc3cccnc3)cc2)c(COCc2ccccc2)n1`: the IC50 in data set [1] was above 10000 nM; in data set [3], above 1000 nM.

For `CC(C)NC(=O)Nc1ccc(-c2c(N)nc(N)nc2COCc2ccccc2)cc1`, the half-inhibitory concentration (IC50) is 56 nM in [1] and above 10000 nM in [2].

In the case of `Nc1nc(N)c(-c2ccc(NC(=O)C3CCCO3)cc2)c(COCc2ccccc2)n1` (configuration not stated), the concentration for half-maximal inhibition (IC50) is above 10000 nM in data set [1] and 391 nM in data set [3].

For the compound `Nc1nc(N)c(-c2ccc(NC(=O)Cc3ccsc3Br)cc2)c(COCc2ccccc2)n1`, the IC50 was 137 nM in data set [1], 41 nM in data set [3] and above 10000 nM in data set [2].

`CCC(=O)Nc1ccc(-c2c(N)nc(N)nc2COCc2ccccc2)cc1`: the values for the 50% inhibitory concentration (IC50) in [1] and in data set [3] were above 10000 nM and 221 nM, respectively.

For `Nc1nc(N)c(-c2ccc(NC(=O)NCc3ccccc3)cc2)c(COCc2ccccc2)n1`, the IC50 in [1] was 34 nM.

Consider `Nc1nc(N)c(-c2ccc(NCc3ccc(Cl)cc3)cc2)c(COCc2ccccc2)n1`, for which the result in [5], in [8] and in data set [9] was Active. In addition, the Kp at 1 h in data set [6] was determined as 3.1. The Kp at 8 h in data set [7] was found to be 1.4.

On to `Nc1nc(N)c(-c2ccc(NC(=O)CCc3ccccc3)cc2)c(COCc2ccccc2)n1`, for which the figures for the half-maximal inhibitory concentration (IC50) in data set [1] and in data set [3] were 343 nM and 47 nM, respectively.

The term half-life denotes the time in which the quantity being followed falls by half. The bioavailability is the share of a dose that reaches the circulation, judged against a reference dose that is usually intravenous. Usually AUC stands for the area under the concentration-time curve, a measure of exposure. `Nc1nc(N)c(-c2ccc(NC(=O)C3CC3)cc2)c(COCc2ccccc2)n1`: the IC50 worked out at 188 nM in data set [1], 66 nM in data set [3] and 28000 nM in data set [2]. The Activity turned out to be 5.4% in data set [10], 9% in [13], 11% in [19] and 20% in data set [20]. Moreover, the Kp at 1 h in [6] came out at 0.26. The outcome in data set [11] and in data set [16] was Active. In addition, the outcome in data set [12] was inactive. Moreover, the Kp at 8 h in [7] came to 0.97. Further, in data set [14], the half-life is 2.4 h. In [15], the Kp at 4 h was 1.1. In [17], this compound gave a bioavailability of 32%. This compound also registered an exposure (AUC) in [18] of 820 ng·h/mL.

As to `Nc1nc(N)c(-c2ccc(NC(=O)c3ccncc3)cc2)c(COCc2ccccc2)n1`, the figures for the IC50 in data set [1] and in [3] were above 10000 nM and 3080 nM, respectively.

Consider `CCc1nc(N)nc(N)c1-c1ccc2c(c1)ncn2Cc1ccc(S(C)(=O)=O)cc1`, for which the concentration for half-maximal inhibition (IC50) turned out to be 11 nM in data set [1] and 4 nM in [3]. The inhibition in data set [4] worked out at 78%.

With `CCc1nc(N)nc(N)c1-c1ccc2c(c1)nc(C1CCCC1)n2Cc1ccc(S(C)(=O)=O)cc1`, the IC50 in data set [1] was determined as 109 nM; in [3], 8 nM; in data set [2] it was 1830 nM.

As to `CN(C(=O)C1CCCC1)c1ccc(-c2c(N)nc(N)nc2COCc2ccccc2)cc1`, the IC50 is above 10000 nM in data set [1] and 1670 nM in data set [3].

As for `CC(NC(=O)Nc1ccc(-c2c(N)nc(N)nc2COCc2ccccc2)cc1)c1ccccc1` (configuration not stated), the IC50 in data set [1] turned out to be 10 nM.

For the compound `Nc1nc(N)c(-c2ccc(NC(=O)c3ccsc3)cc2)c(COCc2ccccc2)n1`, the IC50 was above 10000 nM in data set [1] and 126 nM in [3].

`Nc1nc(N)c(-c2ccc(NC(=O)C3CCCC3)cc2)c(COCc2ccccc2)n1`: the IC50 in data set [1] was 40 nM; in data set [3] it was 18 nM; in data set [2], above 10000 nM.

Consider `Nc1nc(N)c(-c2ccc(NC(=O)Nc3ccccc3)cc2)c(COCc2ccccc2)n1`, for which the figures for the half-maximal inhibitory concentration (IC50) in [1] and in data set [2] were 88 nM and above 10000 nM, respectively.

With `CC(C)N(C)C(=O)Nc1ccc(-c2c(N)nc(N)nc2COCc2ccccc2)cc1`, in data set [1], the IC50 was above 10000 nM.

In the case of `Nc1nc(N)c(-c2ccc(NC(=O)Cc3ccsc3)cc2)c(COCc2ccccc2)n1`, the concentration for half-maximal inhibition (IC50) in data set [1] is 382 nM; in data set [3], 70 nM.

On to `Nc1nc(N)c(-c2ccc(NC(=O)Cc3ccccc3)cc2)c(COCc2ccccc2)n1`, for which the results for the 50% inhibitory concentration (IC50) in data set [1], in [3] and in data set [2] were 408 nM, 37 nM and above 10000 nM, respectively.

Consider `CCc1nc(N)nc(N)c1-c1ccc2c(c1)nc(-c1ccccc1)n2Cc1ccc(S(C)(=O)=O)cc1`, for which the IC50 in data set [1] was determined as 249 nM; in data set [3], 16 nM; in data set [2] it was 2300 nM.

Compound `CCc1nc(N)nc(N)c1-c1ccc(NCc2ccc(Cl)cc2)cc1` registered a bioavailability in [17] of 75%.

On to `CC(=O)Nc1ccc(-c2c(N)nc(N)nc2COCc2ccccc2)cc1`, for which the figures for the IC50 in data set [1] and in data set [3] were above 10000 nM and 2270 nM, respectively.

As to `CC(C)(C)NC(=O)Nc1ccc(-c2c(N)nc(N)nc2COCc2ccccc2)cc1`, the Activity in [21] was 60%; in [22] it was 40%; in data set [24], 60%; in data set [27], 40%. The same compound showed a half-life in data set [23] of 4.5 h. Moreover, the IC50 in [1] is 7 nM; in data set [2], above 100000 nM. Moreover, in data set [25], the BBR entry is “Not Active”. This compound had an AUC in data set [26] of 12300 ng·h/mL.

For the compound `CC(C)CC(=O)Nc1ccc(-c2c(N)nc(N)nc2COCc2ccccc2)cc1`, the IC50 in data set [1] came out at 108 nM; in [3], 72 nM.

(Values after ChEMBL document CHEMBL1138039, “Discovery and pharmacological evaluation of growth hormone secretagogue receptor antagonists” (J Med Chem, 2006).)
